Assay results published in patent publication US20040253665A1, “Novel peptide-producing enzyme, microbe producing the enzyme and method for dipeptide synthesis using them” (AJINOMOTO CO., INC., priority 2002, published 2004).
Like-named read-outs stand apart in the source and are kept apart here. Non-standard residues stand in square brackets, D forms with d. Residues, ends and D or L forms follow the SMILES beside them. *: point of attachment. 2Nal = N[C@@H](Cc1ccc2ccccc2c1)C(=O)O; Tle = CC(C)(C)[C@H](N)C(=O)O; tBu = CC(C)(C)*

Legend:
Format in all cases: biochemical
[1] = tested on: peptide-producing enzyme (Mono S fraction) from Empedobacter brevis strain FERM BP-8113; assay: Enzyme substrate specificity (1)-(10), (13), (14); design: key: +: those peptides for which production was confirmed but which were unable to be quantified due to the absence of a standard; a trace amount
Excerpt: (§1) Ester specificity was examined in the case of using L-amino acid ester for the carboxy component. […] The amounts of L-Ala-L-Gln produced in this reaction are shown in Table 4 (HCl represents hydrochloride in Table 4). Peptide production was examined in the case of using L-alanine methyl ester for the carboxy component and using various L-amino acids for the amine component. […] (The “+” mark indicates those peptides for which production was confirmed but which were unable to be quantified due to the absence of a standard, while “tr” indicates a trace amount.) Peptide production was examined in the case of using various types of L-amino acid methyl esters for the carboxy component and using L-glutamine for the amine component. […] Peptide production was examined in the case of using various L-amino acid methyl esters for the carboxy component and various L-amino acids for the amine component. […] (The “tr” indicates a trace amount.) Furthermore, Tween-80 was added to the reaction system to a final concentration of 0.1% in the case of using L-Trp-OMe. (The “+” mark indicates those peptides for which production was confirmed but which were unable to be quantified due to the absence of a standard.) […] (The “tr” indicates a trace amount.) Peptide production was examined using various L-amino acid amides for the carboxy component, and various L-amino acids for the amine component. […] Peptide production was examined in the case of using various L-alanine methyl esters for the carboxy component and C-protected L-amino acids for the amine component. […] Peptide production was examined in the case of using various amino acid methyl esters for the carboxy component and methylamine for the amine component. […] Peptide production was examined in the case of using β-amino acid ester for the carboxy component or β-amino acid for the amine component. […] (The “tr” indicates a trace amount.) Oligopeptide production was examined in the case of using L-amino acid ester for the carboxy component and peptide for the amine component. […] Substrate specificity was additionally assessed using the same enzyme fraction as that used in Example 5. […] (A “+” mark indicates those for which production was confirmed but which were unable to be quantified due to the absence of a standard, while “tr” indicates a trace amount). Substrate specificity with respect to oligopeptide production was assessed using the same enzyme fraction as Example 26. […] (A “+” mark indicates those for which production was confirmed but which were unable to be quantified due to the absence of a standard, while “tr” indicates a trace amount). It should be noted that hydrochlorides were used for all of the carboxy components.

[2] = tested on: enzyme (SP-Sepharose HP fraction) derived from Sphingobacterium sp. strain FERM BP-8124; design: key to Produced peptide (mM): +: those peptides for which production was confirmed but which were unable to be quantified due to the absence of a standard; a trace amount; details: 0.33 units enzyme, pH 9.0, 25° C., 1.5 hours
Method: Substrate specificity was examined for enzyme derived from Sphingobacterium sp. strain FERM BP-8124 (Depositary institution: National Institute for Advanced Industrial Science and Technology, International Patent Organism Depositary, Address of depositary institution: Central. 6, 1-1-1 Higashi, Tsukuba City, Ibaraki Prefecture, Japan, International deposit date: Jul. 22, 2002). 100 μl of 100 mM borate buffer (pH 9.0) containing the various carboxy components at a final concentration of 100 mM and the various amine components at a final concentration of 150 mM shown in Tables 15-1 to 15-4, the SP-Sepharose HP fraction enzyme purified in Example 22 (addition of 0.33 units in the reaction liquid) and 10 mM EDTA were allowed to react at 25° C. for 1.5 hours. […] In addition, hydrochlorides were used for all carboxy components.
Substrate specificity with respect to oligopeptide production was examined for enzyme derived from Sphingobacterium sp. strain FERM BP-8124 (Depositary institution: National Institute for Advanced Industrial Science and Technology,.International Patent Organism Depositary, Address of depositary institution: Chuo Dai-6, 1-1 Higashi 1-Chome, Tsukuba-shi, Ibaraki-ken, Japan, International deposit date: Jul. 22, 2002). A 100 μl aliquot of 100 mM borate buffer (pH 9.0) containing the various carboxy components at a final concentration of 100 mM and the various amine components at a final concentration of 150 mM shown in Table 16, the SP-Sepharose HP fraction enzyme purified in Example 22 (addition of 0.33 units in the reaction liquid) and 10 mM EDTA were allowed to react for 1.5 hours at 25° C. Furthermore, hydrochloride salts were used for all carboxy components.

[3] = tested on: peptide-producing enzyme (Mono S fraction) from Empedobacter brevis strain FERM BP-8113; assay: Enzyme substrate specificity (1)-(10), (13), (14); details: pH 9.0, 25° C., 3 hours
Excerpt: as §1

[4] = carboxy component 100 mM, amine component 150 mM, 0.1 unit enzyme, 25° C., reaction time 3 hr
[5] = L-amino acid methyl ester hydrochloride 100 mM, 150 mM L-glutamine, pH 9.0, 25° C., 3 hours
[6] = L-amino acid methyl ester hydrochloride 100 mM, 150 mM L-glutamine
[7] = Table 15-2, carboxy component 100 mM, L-Gln 150 mM
[8] = L-amino acid methyl ester hydrochloride 100 mM, L-amino acid 150 mM
[9] = Table 15-3, carboxy component 100 mM, amine component 150 mM
[10] = L-amino acid ester 100 mM, amino acid or peptide amine component 150 mM
[11] = Table 16, oligopeptide production, carboxy component 100 mM, amine component 150 mM

Molecule: C[C@@H](N)C(=O)N[C@H](CCC(N)=O)C(=O)O [D-Ala-D-Gln] (H-[dA]-[dQ]-OH)
- Produced peptide (mM) ([1]; L or D amino acid methyl ester hydrochloride 100 mM, L or D amino acid 150 mM, pH 9.0, 25° C., 3 hours): tr

Molecule: NC(=O)CC[C@H](NC(=O)[C@@H](N)Cc1ccc2ccccc2c1)C(=O)O [H-2-Nal-H-Gln-OH] (H-[2Nal]-Gln-OH)
- Produced peptide (mM) ([1]; carboxy component 40 mM, amine component 40 mM, 0.1 unit enzyme, 25° C., reaction time 3 hr): tr

Molecule: NC(=O)CC[C@H](NC(=O)[C@@H](N)Cc1ccc(Cl)cc1)C(=O)O [H-Cl-F-Phe-H-Gln-OH]
- Produced peptide (mM) ([1]; carboxy component 25 mM, amine component 50 mM, 0.1 unit enzyme, 25° C., reaction time 3 hr): tr

Molecule: CN[C@@H](C)C(=O)N[C@@H](Cc1ccccc1)C(=O)O [H-N-Me-Ala-Phe-OH]
- Produced peptide (mM) [1, 4]: tr

Molecule: CC(C)(C)OC[C@H](N)C(=O)N[C@@H](CCC(N)=O)C(=O)O [H-Ser(tBu)-Gln-OH] (H-Ser(tBu)-Gln-OH)
- Produced peptide (mM) ([1]; carboxy component 100 mM, amine component 150 mM, 0.1 unit enzyme, 25° C., reaction time 2 hr): tr

Molecule: NC(=O)CC[C@H](NC(=O)[C@@H](N)Cc1ccc(F)cc1)C(=O)O [H-p-F-Phe-H-Gln-OH]
- Produced peptide (mM) [1, 4]: tr

Molecule: CC(C)(C)[C@H](N)C(=O)N[C@@H](CCC(N)=O)C(=O)O [H-t-Leu-H-Gln-OH] (H-[Tle]-Gln-OH)
- Produced peptide (mM) [1, 4]: tr

Molecule: C[C@H](N)C(=O)N[C@@H](CS)C(=O)O [L-Ala-L-CySH] (H-Ala-Cys-OH)
- Produced peptide (mM) ([2]; Table 15-1, carboxy component 100 mM, amine component 150 mM): +
- Produced peptide (mM) ([1]; 100 mM L-alanine methyl ester hydrochloride, L-amino acid 150 mM, pH 9.0, 25° C., 3 hours): +

Molecule: NC(=O)CC[C@H](NC(=O)[C@@H](N)CC(N)=O)C(=O)O [L-Asn-L-Gln] (H-Asn-Gln-OH)
- Produced peptide (mM) [1, 5]: +

Molecule: NC(=O)CC[C@H](NC(=O)[C@@H](N)CS)C(=O)O [L-CySH-L-Gln] (H-Cys-Gln-OH)
- Produced peptide (mM) [1, 5]: +

Molecule: NC(=O)CC[C@H](NC(=O)[C@@H](N)Cc1cnc[nH]1)C(=O)O [L-His-L-Gln] (H-His-Gln-OH)
- Produced peptide (mM) [1, 5]: +

Molecule: CC(C)C[C@H](N)C(=O)N[C@@H](CCC(N)=O)C(=O)O [L-Leu-L-Gln] (H-Leu-Gln-OH)
- Produced peptide (mM) [1, 5]: +

Molecule: NCCCC[C@H](N)C(=O)N[C@@H](CCC(N)=O)C(=O)O [L-Lys-L-Gln] (H-Lys-Gln-OH)
- Produced peptide (mM) [1, 5]: +

Molecule: NC(=O)CC[C@H](NC(=O)[C@@H](N)CO)C(=O)O [L-Ser-L-Gln] (H-Ser-Gln-OH)
- Produced peptide [3, 6]: 24.0 mM
- Produced peptide [2, 7]: 12.9 mM

Molecule: CSCC[C@H](NC(=O)[C@@H](N)CO)C(=O)O [L-Ser-L-Met] (H-Ser-Met-OH)
- Produced peptide [3, 8]: 12.5 mM
- Produced peptide [2, 9]: 7.6 mM

Molecule: N[C@@H](CO)C(=O)N[C@@H](Cc1ccccc1)C(=O)O [L-Ser-L-Phe]
- Produced peptide [3, 8]: 20.3 mM
- Produced peptide [2, 9]: 4.3 mM

Molecule: C[C@@H](O)[C@H](N)C(=O)NCC(=O)O [L-Thr-Gly] (H-Thr-Gly-OH)
- Produced peptide [3, 8]: 9.4 mM
- Produced peptide [2, 9]: 0.4 mM

Molecule: C[C@H](NC(=O)[C@@H](N)[C@@H](C)O)C(=O)O [L-Thr-L-Ala] (H-Thr-Ala-OH)
- Produced peptide [3, 8]: 9.4 mM
- Produced peptide [2, 9]: 5.8 mM

Molecule: C[C@@H](O)[C@H](N)C(=O)N[C@@H](CCC(N)=O)C(=O)O [L-Thr-L-Gln] (H-Thr-Gln-OH)
- Produced peptide ([3]; L-amino acid amide hydrochloride 100 mM as carboxy component, L-amino acid 150 mM): 0.3 mM
- Produced peptide [3, 6]: 81.9 mM
- Produced peptide [2, 7]: 36.1 mM

Molecule: CSCC[C@H](NC(=O)[C@@H](N)[C@@H](C)O)C(=O)O [L-Thr-L-Met] (H-Thr-Met-OH)
- Produced peptide [3, 8]: 38.6 mM
- Produced peptide [2, 9]: 28.9 mM

Molecule: CC(C)[C@H](NC(=O)[C@@H](N)[C@@H](C)O)C(=O)O [L-Thr-L-Val] (H-Thr-Val-OH)
- Produced peptide [3, 8]: 0.7 mM
- Produced peptide [2, 9]: 1.3 mM

Molecule: CNC(=O)[C@@H](N)[C@@H](C)O [L-Thr-methylamine]
- Produced peptide ([3]; amino acid methyl ester 100 mM, methylamine 150 mM): 0.2 mM
- Produced peptide ([2]; Table 15-4, amides or methylamine as components, 100 mM / 150 mM): 0.3 mM

Molecule: NC(=O)CCC(NC(=O)C(N)Cc1c[nH]c2ccccc12)C(=O)O [L-Trp-L-Gln] (H-Trp-Gln-OH; configuration not given here)
- Produced peptide (mM) [1, 5]: +

Molecule: NC(=O)CC[C@H](NC(=O)[C@@H](N)Cc1ccc(O)cc1)C(=O)O [L-Tyr-L-Gln] (H-Tyr-Gln-OH)
- Produced peptide [3, 6]: 3.4 mM
- Produced peptide [2, 7]: 0.6 mM

Molecule: CC(C)[C@H](N)C(=O)N[C@@H](CCC(N)=O)C(=O)O [L-Val-L-Gln] (H-Val-Gln-OH)
- Produced peptide [3, 6]: 15.4 mM
- Produced peptide [2, 7]: 8.2 mM

Molecule: CC(C)[C@H](N)C(=O)N[C@@H](Cc1ccccc1)C(=O)O [L-Val-L-Phe] (H-Val-Phe-OH)
- Produced peptide [3, 8]: 6.1 mM
- Produced peptide [2, 9]: 1.0 mM

Molecule: CC(C)[C@H](N)C(=O)N[C@@H](CO)C(=O)O [L-Val-L-Ser] (H-Val-Ser-OH)
- Produced peptide [3, 8]: 30.8 mM
- Produced peptide [2, 9]: 31.9 mM

Molecule: NC(=O)CC[C@H](NC(=O)[C@@H](N)CCC(=O)O)C(=O)O [α-L-Glu-L-Gln] (H-Glu-Gln-OH)
- Produced peptide (mM) [1, 5]: +

Molecule: C[C@H](NC(=O)CCN)C(=O)O [β-Ala-L-α-Ala]
- Produced peptide (mM) ([1]; β-amino acid ester as carboxy component or β-amino acid as amine component, 100 mM / 150 mM, pH 9.0, 25° C., 3 hours): tr

Molecule: NC(=O)CC[C@H](NC(=O)C[C@H](N)C(=O)O)C(=O)O [β-L-Asp-L-Gln]
- Produced peptide (mM) [1, 5]: tr

Molecule: NC(=O)CC[C@H](NC(=O)CC[C@H](N)C(=O)O)C(=O)O [γ-L-Glu-L-Gln]
- Produced peptide (mM) [1, 5]: +

Molecule: Gly-L-Ala-L-Tyr
- Produced peptide [3, 10]: 1.7 mM
- Produced peptide [2, 11]: 0.6 mM

Molecule: L-Ala-Gly-Gly
- Produced peptide [3, 10]: 41.7 mM
- Produced peptide [2, 11]: 33.7 mM

Molecule: L-Ala-Gly-L-Ala
- Produced peptide [3, 10]: 25.9 mM
- Produced peptide [2, 11]: 35.1 mM

Molecule: L-Ala-L-Ala-L-Ala
- Produced peptide [3, 10]: 57.5 mM
- Produced peptide [2, 11]: 41.1 mM

Molecule: L-Ala-L-Ala-L-Ala-L-Ala
- Produced peptide [3, 10]: 44.5 mM
- Produced peptide [2, 11]: 30.1 mM

Molecule: L-Ala-L-His-L-Ala
- Produced peptide [3, 10]: 55.9 mM
- Produced peptide [2, 11]: 58.0 mM

Molecule: L-Ala-L-Leu-L-Ala
- Produced peptide [3, 10]: 48.3 mM
- Produced peptide [2, 11]: 40.7 mM

Molecule: L-Ala-L-Phe-Gly
- Produced peptide [3, 10]: 43.7 mM
- Produced peptide [2, 11]: 34.0 mM

Molecule: L-Ala-L-Phe-L-Ala
- Produced peptide [3, 10]: 49.7 mM
- Produced peptide [2, 11]: 24.8 mM

Molecule: L-Thr-Gly-Gly
- Produced peptide [3, 10]: 83.0 mM
- Produced peptide [2, 11]: 8.4 mM
